Assays:
[1] = biological target: Metabotropic glutamate receptor 4 (Rattus norvegicus) (UniProt P31423); conditions: HEK293
Description: Agonist activity at rat mGlu4 receptor expressed in HEK293 cells by inositol phosphate accumulation assay

[2] = biological target: Metabotropic glutamate receptor 4 (Rattus norvegicus, UniProt P31423); test: Positive allosteric modulator activity at rat mGlu4 receptor expressed in HEK293 cells assessed as effect on L-AP4-induced inositol phosphate accumulation incubated for 30 mins by florescence assay; type: functional, cell-based
[3] = biological target: Metabotropic glutamate receptor 5 (Rattus norvegicus, UniProt P31424); test: Negative allosteric modulator activity at rat mGlu5 receptor expressed in HEK293 cells assessed as effect on quisqualate-induced inositol phosphate accumulation incubated for 30 mins by florescence assay; type: functional, cell-based
Chain of Metabotropic glutamate receptor 5 (P31424 whole entry): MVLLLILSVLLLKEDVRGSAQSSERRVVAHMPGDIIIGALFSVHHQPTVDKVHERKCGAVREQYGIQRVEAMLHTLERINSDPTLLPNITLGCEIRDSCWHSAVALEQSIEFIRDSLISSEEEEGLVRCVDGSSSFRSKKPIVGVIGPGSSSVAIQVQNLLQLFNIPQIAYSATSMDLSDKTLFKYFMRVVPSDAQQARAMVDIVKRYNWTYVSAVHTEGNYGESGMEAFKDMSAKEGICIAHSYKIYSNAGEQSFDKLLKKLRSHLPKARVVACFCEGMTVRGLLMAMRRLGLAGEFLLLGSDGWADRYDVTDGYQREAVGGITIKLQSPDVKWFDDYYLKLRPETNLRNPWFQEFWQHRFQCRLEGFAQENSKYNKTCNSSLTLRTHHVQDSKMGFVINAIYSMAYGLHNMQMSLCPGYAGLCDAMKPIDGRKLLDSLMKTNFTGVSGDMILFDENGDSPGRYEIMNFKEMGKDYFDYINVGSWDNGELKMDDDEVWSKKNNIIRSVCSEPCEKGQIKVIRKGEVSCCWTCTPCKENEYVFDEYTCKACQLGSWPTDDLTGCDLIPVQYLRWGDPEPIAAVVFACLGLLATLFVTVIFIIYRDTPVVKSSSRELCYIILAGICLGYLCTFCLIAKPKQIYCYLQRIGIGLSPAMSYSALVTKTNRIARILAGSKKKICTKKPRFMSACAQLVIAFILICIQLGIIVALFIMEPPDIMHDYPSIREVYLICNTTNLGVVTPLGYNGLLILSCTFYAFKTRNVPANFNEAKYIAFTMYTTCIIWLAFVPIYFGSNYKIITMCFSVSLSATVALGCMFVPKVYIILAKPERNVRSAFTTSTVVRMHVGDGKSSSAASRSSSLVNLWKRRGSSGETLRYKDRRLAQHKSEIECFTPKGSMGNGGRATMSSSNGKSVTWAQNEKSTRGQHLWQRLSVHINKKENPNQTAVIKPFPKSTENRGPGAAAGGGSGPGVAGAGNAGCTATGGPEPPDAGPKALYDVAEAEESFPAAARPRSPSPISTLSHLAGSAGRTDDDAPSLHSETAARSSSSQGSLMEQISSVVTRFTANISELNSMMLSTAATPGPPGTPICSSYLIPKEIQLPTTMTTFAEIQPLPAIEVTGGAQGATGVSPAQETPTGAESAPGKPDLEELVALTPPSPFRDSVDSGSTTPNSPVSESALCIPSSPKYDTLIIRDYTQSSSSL

[4] = biological target: Metabotropic glutamate receptor 5 (Rattus norvegicus) (UniProt P31424); test: Potency index, ratio of IC50 for MPEP to IC50 for test compound for negative allosteric modulator activity at rat mGlu5 receptor expressed in HEK293 cells; type: cell-based
Chain of Metabotropic glutamate receptor 5 (Rattus norvegicus) (P31424 21-1203 limits assumed): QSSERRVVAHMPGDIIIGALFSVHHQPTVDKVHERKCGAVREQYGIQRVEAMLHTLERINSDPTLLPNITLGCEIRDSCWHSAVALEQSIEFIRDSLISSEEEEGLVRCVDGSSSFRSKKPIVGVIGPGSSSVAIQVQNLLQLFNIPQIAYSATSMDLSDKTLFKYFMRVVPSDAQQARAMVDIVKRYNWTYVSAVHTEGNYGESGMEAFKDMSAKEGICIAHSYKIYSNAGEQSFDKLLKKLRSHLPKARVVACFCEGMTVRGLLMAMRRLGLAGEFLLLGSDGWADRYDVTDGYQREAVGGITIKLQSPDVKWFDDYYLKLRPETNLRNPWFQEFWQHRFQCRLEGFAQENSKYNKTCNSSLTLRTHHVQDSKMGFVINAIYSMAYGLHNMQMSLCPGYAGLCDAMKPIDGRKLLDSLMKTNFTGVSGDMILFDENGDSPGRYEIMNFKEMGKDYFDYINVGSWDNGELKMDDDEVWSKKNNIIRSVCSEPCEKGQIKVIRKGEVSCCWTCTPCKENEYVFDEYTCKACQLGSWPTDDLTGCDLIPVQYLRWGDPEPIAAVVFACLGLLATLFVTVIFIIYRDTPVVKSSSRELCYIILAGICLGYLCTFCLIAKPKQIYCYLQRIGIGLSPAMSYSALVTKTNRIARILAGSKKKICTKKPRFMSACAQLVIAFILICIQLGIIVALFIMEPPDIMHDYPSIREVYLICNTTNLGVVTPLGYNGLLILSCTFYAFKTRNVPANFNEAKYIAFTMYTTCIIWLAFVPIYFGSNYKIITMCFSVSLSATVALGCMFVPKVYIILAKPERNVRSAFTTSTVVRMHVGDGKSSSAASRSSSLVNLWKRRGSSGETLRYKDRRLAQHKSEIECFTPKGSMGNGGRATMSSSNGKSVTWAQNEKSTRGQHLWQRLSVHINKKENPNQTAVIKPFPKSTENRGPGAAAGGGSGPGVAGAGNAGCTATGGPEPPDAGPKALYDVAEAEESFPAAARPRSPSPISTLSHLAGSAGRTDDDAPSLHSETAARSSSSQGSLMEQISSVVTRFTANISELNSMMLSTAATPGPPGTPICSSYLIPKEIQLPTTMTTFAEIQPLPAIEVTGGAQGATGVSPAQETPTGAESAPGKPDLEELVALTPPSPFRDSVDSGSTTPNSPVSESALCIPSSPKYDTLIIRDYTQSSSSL

[5] = biological target: Metabotropic glutamate receptor 5 (Rattus norvegicus) (UniProt P31424); conditions: HEK293
Description: Agonist activity at rat mGlu5 receptor expressed in HEK293 cells by inositol phosphate accumulation assay

Chain of Metabotropic glutamate receptor 4 (P31423 whole entry): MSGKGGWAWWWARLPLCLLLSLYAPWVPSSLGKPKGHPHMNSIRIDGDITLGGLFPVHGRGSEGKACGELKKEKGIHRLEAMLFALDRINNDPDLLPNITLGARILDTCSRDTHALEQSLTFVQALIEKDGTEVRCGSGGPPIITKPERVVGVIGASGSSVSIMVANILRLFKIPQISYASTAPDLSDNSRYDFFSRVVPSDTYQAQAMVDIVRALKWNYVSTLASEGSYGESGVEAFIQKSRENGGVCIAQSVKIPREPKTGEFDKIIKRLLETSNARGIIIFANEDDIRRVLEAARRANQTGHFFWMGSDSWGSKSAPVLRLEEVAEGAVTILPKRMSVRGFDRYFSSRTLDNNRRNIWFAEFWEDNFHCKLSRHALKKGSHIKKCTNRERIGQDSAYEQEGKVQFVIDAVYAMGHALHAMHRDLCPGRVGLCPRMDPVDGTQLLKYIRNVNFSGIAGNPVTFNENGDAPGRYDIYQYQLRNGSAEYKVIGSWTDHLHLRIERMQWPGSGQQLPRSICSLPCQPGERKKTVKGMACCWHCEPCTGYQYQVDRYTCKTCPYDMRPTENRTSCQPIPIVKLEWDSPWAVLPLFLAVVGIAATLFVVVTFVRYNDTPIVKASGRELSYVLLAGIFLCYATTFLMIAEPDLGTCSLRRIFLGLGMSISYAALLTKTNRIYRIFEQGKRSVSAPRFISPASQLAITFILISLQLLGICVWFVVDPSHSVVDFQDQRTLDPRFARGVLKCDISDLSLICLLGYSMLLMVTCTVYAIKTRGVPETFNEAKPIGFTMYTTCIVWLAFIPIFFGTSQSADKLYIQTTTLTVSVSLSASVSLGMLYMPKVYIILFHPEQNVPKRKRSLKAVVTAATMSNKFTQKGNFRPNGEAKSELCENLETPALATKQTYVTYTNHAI
Chain of Metabotropic glutamate receptor 4 (Rattus norvegicus) (P31423 whole entry): as above

Compound	EC50 [2] [nM]	IC50 ([3]; read-out: IC50) [nM]	also measured
N[C@@H](CCP(=O)(O)O)C(=O)O	–	–	EC10 [1]: 10 nM
COc1cc(C#Cc2ccccn2)ccc1NC(=O)c1ccccc1Cl	> 30000	24	Ratio IC50 [4]: 4
N[C@@H](Cn1oc(=O)[nH]c1=O)C(=O)O	–	–	EC80 [5]: 100 nM
COc1cc(NC(=O)c2ccccn2)ccc1C#Cc1ccccc1Cl	4100	–	IC50 ([3]; hek293): Not Active
COc1cc(NC(=O)c2ccccn2)ccc1NC(=O)c1ccccc1Cl	104	> 30000	–

From ChEMBL document CHEMBL3596138, “A double effect molecular switch leads to a novel potent negative allosteric modulator of metabotropic glutamate receptor 5” (Medchemcomm, 2014)
